From patent publication US20240327397A1, “Pesticidally Active Fused Bicyclic Heteroaromatic Compounds” (SYNGENTA CROP PROTECTION AG, priority 2021, published 2024)

Assays:
Assay type in all cases: in vivo
[1] = system: Chilo suppressalis (Striped Rice Stemborer); assay: Example B1: Chilo suppressalis, artificial diet in 24-well plates, L2 larvae; details: 144 h, application rate 200 ppm, 6 days after infestation, versus untreated, read-out: control (at least one of mortality, anti-feedant effect, growth inhibition)
Description: Example B1: Chilo suppressalis (Striped Rice Stemborer)
24-well microtiter plates with artificial diet were treated with aqueous test solutions prepared from 10'000 ppm DMSO stock solutions by pipetting. After drying, the plates were infested with L2 larvae (6-8 per well). The samples were assessed for mortality, anti-feeding effect, and growth inhibition in comparison to untreated samples 6 days after infestation. Control of Chilo suppressalis by a test sample is given when at least one of the categories mortality, anti-feedant effect, and growth inhibition is higher than the untreated sample.

[2] = system: Diabrotica Balteata (Corn Root Worm); assay: Example B2: Diabrotica balteata, sprayed maize sprouts on agar, L2 larvae; details: 96 h, application rate 200 ppm, 4 days after infestation, versus untreated, read-out: effect in at least one of the two categories (mortality or growth inhibition)
Description: Example B2: Diabrotica Balteata (Corn Root Worm)
Maize sprouts placed onto an agar layer in 24-well microtiter plates were treated with aqueous test solutions prepared from 10'000 ppm DMSO stock solutions by spraying. After drying, the plates were infested with L2 larvae (6 to 10 per well). The samples were assessed for mortality and growth inhibition in comparison to untreated samples 4 days after infestation.

[3] = system: Plutella xylostella (Diamond Back Moth); assay: Example B3: Plutella xylostella, artificial diet in 24-well plates, eggs; details: 192 h, application rate 200 ppm, 8 days after infestation, versus untreated, read-out: effect in at least one of the two categories (mortality or growth inhibition)
Description: Example B3: Plutella xylostella (Diamond Back Moth)
24-well microtiter plates with artificial diet were treated with aqueous test solutions prepared from 10'000 ppm DMSO stock solutions by pipetting. After drying, Plutella eggs were pipetted through a plastic stencil onto a gel blotting paper and the plate was closed with it. The samples were assessed for mortality and growth inhibition in comparison to untreated samples 8 days after infestation.

[4] = system: Spodoptera littoralis (Eqyptian Cotton Leaf Worm); assay: Example B4: Spodoptera littoralis, sprayed cotton leaf discs, L1 larvae; details: foliar, 72 h, application rate 200 ppm, 3 days after infestation, versus untreated, read-out: control (at least one of mortality, anti-feedant effect, growth inhibition)
Description: Example B4: Spodoptera littoralis (Eqyptian Cotton Leaf Worm)
Cotton leaf discs were placed onto agar in 24-well microtiter plates and sprayed with aqueous test solutions prepared from 10'000 ppm DMSO stock solutions. After drying the leaf discs were infested with five L1 larvae. The samples were assessed for mortality, anti-feeding effect, and growth inhibition in comparison to untreated samples 3 days after infestation. Control of Spodoptera littoralis by a test sample is given when at least one of the categories mortality, anti-feedant effect, and growth inhibition is higher than the untreated sample.

[5] = system: Myzus persicae (Green Peach Aphid); assay: Example B7: Myzus persicae, intrinsic activity, sucrose solution under Parafilm; details: 120 h, test rate 12 ppm, 5 days after infestation
Source text: Example B7: Myzus persicae (Green Peach Aphid). Intrinsic Activity
Test compounds prepared from 10'000 ppm DMSO stock solutions were applied by pipette into 24-well microtiter plates and mixed with sucrose solution. The plates were closed with a stretched Parafilm. A plastic stencil with 24 holes was placed onto the plate and infested pea seedlings were placed directly on the Parafilm. The infested plate was closed with a gel blotting paper and another plastic stencil and then turned upside down. The samples were assessed for mortality 5 days after infestation.

C[C@H](NC1=N[S@@](C)(=O)=Nc2c(Br)cc(Br)cc21)c1ncnn1-c1ccc(C#N)cn1 (single isomer, unassigned) [P6]
≥ 80%: percent control (mortality, anti-feedant effect or growth inhibition) at 200 ppm [1] | percent effect (mortality or growth inhibition) at 200 ppm [2] | percent effect (mortality or growth inhibition) at 200 ppm [3] | percent control (mortality, anti-feedant effect or growth inhibition) at 200 ppm [4]

C[C@H](NC1=N[S@](C)(=O)=Nc2c(Br)cc(Br)cc21)c1ncnn1-c1ccc(C#N)cn1 (single isomer, unassigned) [P7]
≥ 80%: percent control (mortality, anti-feedant effect or growth inhibition) at 200 ppm [1] | percent effect (mortality or growth inhibition) at 200 ppm [2] | percent effect (mortality or growth inhibition) at 200 ppm [3] | percent control (mortality, anti-feedant effect or growth inhibition) at 200 ppm [4]

C[C@H](NC1=N[S@](C)(=O)=Nc2ccc(Br)cc21)c1ncnn1-c1ccc(C#N)cn1 (single isomer, unassigned) [P8]
≥ 80%: percent control (mortality, anti-feedant effect or growth inhibition) at 200 ppm [1] | percent effect (mortality or growth inhibition) at 200 ppm [3] | percent control (mortality, anti-feedant effect or growth inhibition) at 200 ppm [4]

C[C@H](NC1=N[S@@](C)(=O)=Nc2ccc(Br)cc21)c1ncnn1-c1ccc(C#N)cn1 (single isomer, unassigned) [P9]
≥ 80%: percent control (mortality, anti-feedant effect or growth inhibition) at 200 ppm [1] | percent effect (mortality or growth inhibition) at 200 ppm [2] | percent effect (mortality or growth inhibition) at 200 ppm [3] | percent control (mortality, anti-feedant effect or growth inhibition) at 200 ppm [4]

CC(NC1=CS(C)(=O)=Nc2c1cc(C(F)(F)F)cc2C(F)(F)F)c1ncnn1-c1ncccn1 (centres unmarked) [P2, 3-methyl-3-oxo-N-[1-(2-pyrimidin-2-yl-1,2,4-triazol-3-yl)ethyl]-8,10-bis(trifluoromethyl)-3λ^6-thia-2-azabicyclo[4.4.0]deca-1(6),2,4,7,9-pentaen-5-amine]
≥ 80%: percent control (mortality, anti-feedant effect or growth inhibition) at 200 ppm [1] | percent effect (mortality or growth inhibition) at 200 ppm [2] | percent effect (mortality or growth inhibition) at 200 ppm [3] | percent control (mortality, anti-feedant effect or growth inhibition) at 200 ppm [4]

CC(NC1=CS(C)(=O)=Nc2c1cc(C(F)(F)F)cc2C(F)(F)F)c1ncnn1-c1ccc(C#N)cn1 (centres unmarked) [P3]
≥ 80%: percent control (mortality, anti-feedant effect or growth inhibition) at 200 ppm [1] | percent control (mortality, anti-feedant effect or growth inhibition) at 200 ppm [4]

CC(NC1=NS(C)(=O)=Nc2c(Br)cc(Br)cc21)c1ncnn1-c1ccc(C#N)cn1 (centres unmarked) [P4, 6-[5-[1-[(8,10-dibromo-3-methyl-3-oxo-3λ^6-thia-2,4-diazabicyclo[4.4.0]deca-1(10),2,4,6,8-pentaen-5-yl)amino]ethyl]-1,2,4-triazol-1-yl]pyridine-3-carbonitrile]
≥ 80%: percent control (mortality, anti-feedant effect or growth inhibition) at 200 ppm [1] | percent effect (mortality or growth inhibition) at 200 ppm [2] | percent effect (mortality or growth inhibition) at 200 ppm [3] | percent control (mortality, anti-feedant effect or growth inhibition) at 200 ppm [4]

C[C@H](NC1=NS(C)(=O)=Nc2c(Br)cc(Br)cc21)c1ncnn1-c1ccc(C#N)cn1 (stereo partly drawn) [P5, 6-[5-[(1S)-1-[(8,10-dibromo-3-methyl-3-oxo-3λ^6-thia-2,4-diazabicyclo[4.4.0]deca-1(10),2,4,6,8-pentaen-5-yl)amino]ethyl]-1,2,4-triazol-1-yl]pyridine-3-carbonitrile]
≥ 80%: percent control (mortality, anti-feedant effect or growth inhibition) at 200 ppm [1] | percent effect (mortality or growth inhibition) at 200 ppm [2] | percent effect (mortality or growth inhibition) at 200 ppm [3] | percent control (mortality, anti-feedant effect or growth inhibition) at 200 ppm [4]

C[C@H](NC1=NS(C)(=O)=Nc2c(Br)cc(Br)cc21)c1ncnn1-c1cnccn1 (stereo partly drawn) [P11, 8,10-dibromo-3-methyl-3-oxo-N-[(1S)-1-(2-pyrazin-2-yl-1,2,4-triazol-3-yl)ethyl]-3λ^6-thia-2,4-diazabicyclo[4.4.0]deca-1(6),2,4,7,9-pentaen-5-amine]
≥ 80%: percent control (mortality, anti-feedant effect or growth inhibition) at 200 ppm [1] | percent effect (mortality or growth inhibition) at 200 ppm [2] | percent effect (mortality or growth inhibition) at 200 ppm [3] | percent control (mortality, anti-feedant effect or growth inhibition) at 200 ppm [4]

C[C@H](NC1=NS(C)(=O)=Nc2c(Cl)cc(C(F)(F)F)cc21)c1nccnc1-c1cnccn1 (stereo partly drawn) [P12, 10-chloro-3-methyl-3-oxo-N-[(1S)-1-(3-pyrazin-2-ylpyrazin-2-yl)ethyl]-8-(trifluoromethyl)-3λ^6-thia-2,4-diazabicyclo[4.4.0]deca-1(6),2,4,7,9-pentaen-5-amine]
≥ 80%: percent effect (mortality or growth inhibition) at 200 ppm [2] | percent effect (mortality or growth inhibition) at 200 ppm [3] | percent control (mortality, anti-feedant effect or growth inhibition) at 200 ppm [4]

C[C@H](NC1=NS(C)(=O)=Nc2c(Cl)cc(C(F)(F)F)cc21)c1ncnn1-c1ccc(C#N)cn1 (some centres unmarked) [P15]
≥ 80%: percent effect (mortality or growth inhibition) at 200 ppm [2] | percent effect (mortality or growth inhibition) at 200 ppm [3] | percent control (mortality, anti-feedant effect or growth inhibition) at 200 ppm [4]

C[C@H](NC1=NS(C)(=O)=Nc2c1cc(Cl)cc2C(F)(F)F)c1ncnn1-c1ccc(C#N)cn1 (some centres unmarked) [P16]
≥ 80%: percent control (mortality, anti-feedant effect or growth inhibition) at 200 ppm [1] | percent effect (mortality or growth inhibition) at 200 ppm [2] | percent effect (mortality or growth inhibition) at 200 ppm [3] | percent control (mortality, anti-feedant effect or growth inhibition) at 200 ppm [4] | mortality at 12 ppm [5]

C[C@H](NC1=NS(C)(=O)=Nc2c1cc(Cl)cc2C(F)(F)F)c1ncnn1-c1cnccn1 (stereo partly drawn) [P17, 8-chloro-3-methyl-3-oxo-N-[(1S)-1-(2-pyrazin-2-yl-1,2,4-triazol-3-yl)ethyl]-10-(trifluoromethyl)-3λ^6-thia-2,4-diazabicyclo[4.4.0]deca-1(6),2,4,7,9-pentaen-5-amine]
≥ 80%: percent effect (mortality or growth inhibition) at 200 ppm [2] | percent effect (mortality or growth inhibition) at 200 ppm [3] | percent control (mortality, anti-feedant effect or growth inhibition) at 200 ppm [4]

C[C@H](NC1=NS(C)(=O)=Nc2c1cc(Cl)cc2C(F)(F)F)c1ncnn1-c1ncccn1 (stereo partly drawn) [P18, 8-chloro-3-methyl-3-oxo-N-[(1S)-1-(2-pyrimidin-2-yl-1,2,4-triazol-3-yl)ethyl]-10-(trifluoromethyl)-3λ^6-thia-2,4-diazabicyclo[4.4.0]deca-1(6),2,4,7,9-pentaen-5-amine]
≥ 80%: percent control (mortality, anti-feedant effect or growth inhibition) at 200 ppm [1] | percent effect (mortality or growth inhibition) at 200 ppm [2] | percent effect (mortality or growth inhibition) at 200 ppm [3] | percent control (mortality, anti-feedant effect or growth inhibition) at 200 ppm [4] | mortality at 12 ppm [5]

C[C@H](NC1=NS(C)(=O)=Nc2c1cc(Cl)cc2C(F)(F)F)c1nccnc1-c1cnccn1 (stereo partly drawn) [P19, 8-chloro-3-methyl-3-oxo-N-[(1S)-1-(3-pyrazin-2-ylpyrazin-2-yl)ethyl]-10-(trifluoromethyl)-3λ^6-thia-2,4-diazabicyclo[4.4.0]deca-1(6),2,4,7,9-pentaen-5-amine]
≥ 80%: percent control (mortality, anti-feedant effect or growth inhibition) at 200 ppm [1] | percent effect (mortality or growth inhibition) at 200 ppm [2] | percent effect (mortality or growth inhibition) at 200 ppm [3] | percent control (mortality, anti-feedant effect or growth inhibition) at 200 ppm [4]

C[C@@H](c1ncnn1-c1cnccn1)N(C)C1=NS(C)(=O)=Nc2c1cc(Cl)cc2C(F)(F)F (stereo partly drawn) [P20, 8-chloro-N,3-dimethyl-3-oxo-N-[(1S)-1-(2-pyrazin-2-yl-1,2,4-triazol-3-yl)ethyl]-10-(trifluoromethyl)-3λ^6-thia-2,4-diazabicyclo[4.4.0]deca-1(6),2,4,7,9-pentaen-5-amine]
≥ 80%: percent effect (mortality or growth inhibition) at 200 ppm [2] | percent effect (mortality or growth inhibition) at 200 ppm [3] | percent control (mortality, anti-feedant effect or growth inhibition) at 200 ppm [4]
